The source made the active and inactive calls.
Assays:
[1] = test system: BJ; test: cytotoxicity toward BJ-TERT fibroblasts, dose response, cell-based, RAS-independent, luminescence (AID 1933); assay type: functional; settings: Homo sapiens
[2] = test system: Vero; test: host cell cytotoxicity of antiviral hits, dose response, cytotoxicity control for West Nile virus antiviral project, secondary assay (AID 1650); assay type: functional; settings: Chlorocebus sabaeus
[3] = test system: BJ; test: cells; assay type: functional, cell-based; settings: Homo sapiens
[4] = test system: BJ; test: cytotoxicity toward BJ-TERT-LT-ST fibroblasts, dose response, cell-based, RAS-independent, luminescence (AID 1935); assay type: functional; settings: Homo sapiens;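 note: BJ fibroblasts immortalized with TERT plus LT and ST oncogenes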
[5] = cytotoxicity toward DRD oncogenic fibroblasts, dose response, cell-based, non-viral oncogenic, luminescence (AID 1934); assay type: functional; settings: Homo sapiens
[6] = test system: Vero; test: cells; assay type: functional, cell-based; settings: Chlorocebus sabaeus
[7] = test system: Vero; test: cells; assay type: functional; settings: Chlorocebus sabaeus
[8] = NIH-3T3 fibroblast cytotoxicity, dose response, cytotoxicity control, cell-based, fluorescence, Alamar Blue, secondary assay (AID 2327); assay type: functional;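 note: NIH-3T3 mouse fibroblasts cultured with fluconazole at 8 µg/mL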
[9] = C. albicans growth with fluconazole, confirmation, fluorescence, retest (AID 2467); assay type: functional, cell-based
[10] = target: Albumin (Bos taurus, UniProt P02769); test: Counterscreen for inhibitors of T-cell receptor (TCR)-CD3 interaction: Fluorescence-based biochemical high throughput dose response assay to identify inhibitors of T-cell receptor (TCR)-CD3 interaction using a TAMRA-labeled BSA probe.; assay type: functional
Sequence of Albumin (P02769 whole entry): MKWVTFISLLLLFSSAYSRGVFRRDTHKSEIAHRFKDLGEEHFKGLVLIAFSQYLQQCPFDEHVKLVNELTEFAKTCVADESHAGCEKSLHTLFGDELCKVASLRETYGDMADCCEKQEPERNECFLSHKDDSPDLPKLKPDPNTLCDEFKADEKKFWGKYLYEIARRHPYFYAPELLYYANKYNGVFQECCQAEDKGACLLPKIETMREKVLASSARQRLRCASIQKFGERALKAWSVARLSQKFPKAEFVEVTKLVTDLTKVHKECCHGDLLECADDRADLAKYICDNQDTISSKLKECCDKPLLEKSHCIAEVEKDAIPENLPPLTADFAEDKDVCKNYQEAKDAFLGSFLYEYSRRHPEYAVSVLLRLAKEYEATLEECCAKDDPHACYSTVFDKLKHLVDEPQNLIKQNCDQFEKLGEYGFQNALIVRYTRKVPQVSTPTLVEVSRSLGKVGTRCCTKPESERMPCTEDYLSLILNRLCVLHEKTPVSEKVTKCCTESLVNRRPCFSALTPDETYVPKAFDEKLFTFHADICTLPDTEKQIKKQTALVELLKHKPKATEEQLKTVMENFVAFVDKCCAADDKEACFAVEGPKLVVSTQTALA

[11] = test system: HeLa; test: HeLa cell cytotoxicity, dose response, cytotoxicity control for MITF activator project, CellTiter-Glo luminescence, cherry-pick samples (AID 540259); assay type: functional, cell-based; settings: Homo sapiens
[12] = microbe, parasite or virus in culture; assay type: functional; settings: Mycobacterium tuberculosis
[13] = Luminescence Cell-Based Dose Retest to Confirm Inhibitors of Cancer Stem Cells. [Related pubchem assays (depositor defined):AID2717, AID2721]; assay type: functional; settings: Homo sapiens
[14] = target: T1, Ubiquitin-conjugating enzyme E2 N (Homo sapiens, UniProt P61088); assay type: functional;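 note: Dose-response confirmation in a TR-FRET assay detecting UBC13-driven polyubiquitin chain formation, inhibition measured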
T1 sequence (P61088 whole entry): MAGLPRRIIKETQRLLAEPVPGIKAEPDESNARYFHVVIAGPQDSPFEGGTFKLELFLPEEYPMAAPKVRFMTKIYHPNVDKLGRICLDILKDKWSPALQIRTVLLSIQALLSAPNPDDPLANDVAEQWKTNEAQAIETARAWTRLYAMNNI

[15] = target: Heat shock protein HSP 90-alpha (Homo sapiens, UniProt P07900); assay type: functional, organism-based
[16] = test system: Streptococcus sp. 'group A'; test: growth inhibition of control SK(-) GAS strain, dose response, counter-screen for streptokinase expression inhibitor project, luminescence, kanamycin, BacTiterGlo, confirmation (AID 1900); assay type: functional, organism-based
[17] = target: T2, Streptokinase A (Streptococcus pyogenes serotype M1, UniProt P10520); test: S. pyogenes streptokinase expression inhibitors, potency, dose response, plasminogen activation absorbance, OD405 (AID 1914); assay type: functional, Streptococcus pyogenes M1 GAS;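 note: secreted streptokinase activity via plasminogen activation per viability signal from cell pellet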
T2 sequence (P10520 whole entry): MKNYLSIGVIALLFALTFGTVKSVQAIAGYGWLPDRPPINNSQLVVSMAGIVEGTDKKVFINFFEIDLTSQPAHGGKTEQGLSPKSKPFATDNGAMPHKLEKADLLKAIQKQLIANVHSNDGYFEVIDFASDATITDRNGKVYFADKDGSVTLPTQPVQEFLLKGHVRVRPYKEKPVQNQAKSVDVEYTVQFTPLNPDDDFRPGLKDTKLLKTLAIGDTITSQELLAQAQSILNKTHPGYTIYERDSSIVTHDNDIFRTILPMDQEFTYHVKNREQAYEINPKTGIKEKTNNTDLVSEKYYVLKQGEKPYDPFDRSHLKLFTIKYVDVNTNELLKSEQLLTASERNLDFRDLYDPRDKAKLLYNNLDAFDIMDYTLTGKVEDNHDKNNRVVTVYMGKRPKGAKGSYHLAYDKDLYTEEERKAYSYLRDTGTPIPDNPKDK

[18] = test system: Streptococcus; test: Group A Streptococcus viability loss, dose response, counter-screen for streptokinase expression inhibitor project, luminescence, BacTiterGlo (AID 1915); assay type: functional, organism-based;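 note: potency for reduction of bacterial viability or growth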
[19] = cells; assay type: functional, cell-based
[20] = inhibitors of intracellular T. cruzi replication, confirmation, NIH3T3 host cells, beta-gal luminescence (AID 2044); assay type: functional, cell-based;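 note: intracellular parasites grown in NIH/3T3 mouse fibroblasts as host cells; luminescent beta-galactosidase reporter signal from transgenic T. cruzi replicating inside host cells; inhibitors lower the luminescence signal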
[21] = cells; assay type: functional, cell-based; remark: listed apart in the source
[22] = cytotoxicity toward NIH3T3 fibroblasts, dose response, counter-screen, cell-based, ATP luminescence, mouse fibroblasts (AID 2010); assay type: functional;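 note: cells exposed to compound for about 90 hours before reading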
[23] = test system: INS1; test: beta cell apoptosis inhibitors, cytokine rescue, dose response, luminescence, retest (AID 449756); assay type: functional, cell-based; settings: Rattus norvegicus;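 note: cell death triggered by IL-1 beta plus TNF-alpha plus IFN-gamma mixture; protective hits raise ATP signal compared with cytokine alone wells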
[24] = target: T3, Carboxy-terminal domain RNA polymerase II polypeptide A small phosphatase 1 (Homo sapiens, UniProt Q9GZU7); test: inhibitors of CTDSP1, concentration-response testing, biochemical assay, absorbance-based, actives from ultra-high-throughput screening (AID 540297); assay type: functional
T3 sequence (Q9GZU7 whole entry): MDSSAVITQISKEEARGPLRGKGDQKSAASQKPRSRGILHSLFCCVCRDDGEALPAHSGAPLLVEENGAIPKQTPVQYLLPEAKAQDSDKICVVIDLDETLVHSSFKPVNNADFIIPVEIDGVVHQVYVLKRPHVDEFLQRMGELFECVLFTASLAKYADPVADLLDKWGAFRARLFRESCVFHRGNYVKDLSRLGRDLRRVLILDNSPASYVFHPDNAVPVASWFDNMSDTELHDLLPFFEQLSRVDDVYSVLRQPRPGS

[25] = target: T4, Tyrosine-protein phosphatase non-receptor type 11 (Homo sapiens, UniProt Q06124); test: SHP2 phosphatase inhibition, dose response, selectivity assay for STEP inhibitor project, biochemical (AID 602367); assay type: functional; settings: read-out: IC50_Mean
T4 sequence (Q06124 whole entry): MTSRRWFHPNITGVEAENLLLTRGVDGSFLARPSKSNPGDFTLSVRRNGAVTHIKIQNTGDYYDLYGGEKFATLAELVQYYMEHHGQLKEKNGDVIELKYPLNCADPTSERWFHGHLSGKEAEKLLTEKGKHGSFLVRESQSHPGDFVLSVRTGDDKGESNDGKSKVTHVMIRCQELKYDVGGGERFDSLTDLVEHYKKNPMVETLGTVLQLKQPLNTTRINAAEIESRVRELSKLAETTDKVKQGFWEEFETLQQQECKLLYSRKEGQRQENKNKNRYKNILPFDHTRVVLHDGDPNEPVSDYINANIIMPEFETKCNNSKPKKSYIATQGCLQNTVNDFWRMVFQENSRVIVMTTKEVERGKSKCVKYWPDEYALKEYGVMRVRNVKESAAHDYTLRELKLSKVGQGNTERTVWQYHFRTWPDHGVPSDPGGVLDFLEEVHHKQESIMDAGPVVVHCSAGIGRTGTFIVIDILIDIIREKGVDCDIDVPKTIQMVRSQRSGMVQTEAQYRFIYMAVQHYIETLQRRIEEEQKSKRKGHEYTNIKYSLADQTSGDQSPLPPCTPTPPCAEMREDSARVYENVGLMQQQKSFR

[26] = target: T5, Tyrosine-protein phosphatase non-receptor type 5 (Homo sapiens, UniProt P54829); test: STEP phosphatase inhibitors, confirmation, biochemical, fluorescence intensity, uHTS hits (AID 602372); assay type: functional; settings: read-out: IC50_Mean
T5 sequence (P54829 whole entry): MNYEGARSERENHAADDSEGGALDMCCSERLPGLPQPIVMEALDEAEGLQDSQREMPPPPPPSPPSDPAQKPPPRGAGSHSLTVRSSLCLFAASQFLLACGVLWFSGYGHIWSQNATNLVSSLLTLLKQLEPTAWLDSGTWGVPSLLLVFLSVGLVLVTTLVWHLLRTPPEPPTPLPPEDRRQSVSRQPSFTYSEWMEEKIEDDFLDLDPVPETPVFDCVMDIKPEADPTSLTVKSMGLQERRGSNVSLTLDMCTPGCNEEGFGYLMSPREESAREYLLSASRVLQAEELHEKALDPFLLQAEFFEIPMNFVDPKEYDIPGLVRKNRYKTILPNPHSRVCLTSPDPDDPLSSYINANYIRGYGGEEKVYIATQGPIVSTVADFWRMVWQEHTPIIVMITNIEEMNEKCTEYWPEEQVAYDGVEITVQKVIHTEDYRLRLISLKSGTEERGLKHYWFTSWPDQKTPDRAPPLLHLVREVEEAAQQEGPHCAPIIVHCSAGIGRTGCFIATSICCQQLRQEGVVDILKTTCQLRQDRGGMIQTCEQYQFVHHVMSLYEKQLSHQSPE

[27] = target: Dual specificity protein phosphatase 3 (Homo sapiens, UniProt P51452); test: VHR phosphatase inhibition, dose response, selectivity assay for STEP inhibitor project, biochemical (AID 602374); assay type: functional; settings: read-out: IC50_Mean
Sequence of Dual specificity protein phosphatase 3 (P51452 whole entry): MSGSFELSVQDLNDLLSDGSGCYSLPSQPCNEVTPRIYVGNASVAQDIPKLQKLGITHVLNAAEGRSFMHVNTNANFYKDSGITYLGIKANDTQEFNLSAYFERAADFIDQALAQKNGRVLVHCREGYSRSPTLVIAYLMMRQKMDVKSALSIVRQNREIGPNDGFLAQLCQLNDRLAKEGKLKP

[28] = target: Induced myeloid leukemia cell differentiation protein Mcl-1 (Homo sapiens, UniProt Q07820); assay type: functional
Sequence of Induced myeloid leukemia cell differentiation protein Mcl-1 (Q07820 whole entry): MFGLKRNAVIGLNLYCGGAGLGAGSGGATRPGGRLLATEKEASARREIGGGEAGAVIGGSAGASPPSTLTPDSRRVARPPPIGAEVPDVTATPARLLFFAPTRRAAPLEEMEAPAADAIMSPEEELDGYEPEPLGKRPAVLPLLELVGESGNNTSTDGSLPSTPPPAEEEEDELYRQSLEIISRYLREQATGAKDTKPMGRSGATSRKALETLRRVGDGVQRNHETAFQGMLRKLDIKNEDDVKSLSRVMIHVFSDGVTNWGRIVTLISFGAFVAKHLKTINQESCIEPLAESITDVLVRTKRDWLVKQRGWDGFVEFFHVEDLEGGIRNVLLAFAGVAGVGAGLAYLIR

[29] = target: Nonstructural protein 1 (Influenza A virus, UniProt Q194T2); assay type: functional, Influenza A virus (A/California/07/2009(H1N1))
Sequence of Nonstructural protein 1 (Q194T2 whole entry): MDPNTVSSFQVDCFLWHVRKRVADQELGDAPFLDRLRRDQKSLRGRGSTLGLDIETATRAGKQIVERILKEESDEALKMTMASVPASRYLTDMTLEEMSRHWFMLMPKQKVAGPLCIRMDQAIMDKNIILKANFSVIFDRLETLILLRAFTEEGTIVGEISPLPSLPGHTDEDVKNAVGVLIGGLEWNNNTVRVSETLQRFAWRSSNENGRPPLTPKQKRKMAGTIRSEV

[30] = test system: Vero; test: Vero cell cytotoxicity, cytotoxicity control for flavivirus capping enzyme inhibitors (AID 588742); assay type: functional; settings: Chlorocebus sabaeus
[31] = target: Genome polyprotein (dengue virus type 2, UniProt P29990); test: Dengue-2 NS5 methyltransferase inhibitors, primary screen, biochemical, confirmation dose response (AID 588689); assay type: functional
Sequence of Genome polyprotein (P29990 2492-3391 limits assumed): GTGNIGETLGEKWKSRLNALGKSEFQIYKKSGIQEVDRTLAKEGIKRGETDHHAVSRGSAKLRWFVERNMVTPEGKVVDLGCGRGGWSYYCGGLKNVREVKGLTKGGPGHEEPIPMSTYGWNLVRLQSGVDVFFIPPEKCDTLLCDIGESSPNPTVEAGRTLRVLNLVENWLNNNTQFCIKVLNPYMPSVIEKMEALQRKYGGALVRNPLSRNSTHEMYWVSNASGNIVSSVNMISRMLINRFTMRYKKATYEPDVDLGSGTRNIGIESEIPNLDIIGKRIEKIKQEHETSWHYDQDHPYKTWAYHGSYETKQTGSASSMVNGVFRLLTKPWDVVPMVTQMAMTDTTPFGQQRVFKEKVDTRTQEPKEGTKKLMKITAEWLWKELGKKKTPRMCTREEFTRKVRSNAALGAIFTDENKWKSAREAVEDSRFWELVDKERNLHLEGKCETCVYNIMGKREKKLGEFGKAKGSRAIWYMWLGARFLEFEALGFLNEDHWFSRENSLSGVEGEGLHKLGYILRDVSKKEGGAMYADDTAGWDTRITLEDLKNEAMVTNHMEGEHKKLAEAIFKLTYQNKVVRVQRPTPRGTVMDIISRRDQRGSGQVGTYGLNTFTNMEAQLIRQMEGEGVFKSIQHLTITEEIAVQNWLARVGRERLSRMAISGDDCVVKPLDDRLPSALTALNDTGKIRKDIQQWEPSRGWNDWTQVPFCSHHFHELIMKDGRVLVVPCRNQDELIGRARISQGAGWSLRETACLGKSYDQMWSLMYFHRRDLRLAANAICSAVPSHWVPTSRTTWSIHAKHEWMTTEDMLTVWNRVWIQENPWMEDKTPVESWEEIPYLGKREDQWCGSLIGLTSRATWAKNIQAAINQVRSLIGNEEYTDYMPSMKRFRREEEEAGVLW

[32] = test system: H9c2; test: cells; assay type: functional, cell-based; settings: Rattus norvegicus, H9c2, Myocardium;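 note: confirmatory concentration-response retest of ultra-high-throughput screening hits for modulation of myocardial damage; cell death induced by hydrogen peroxide oxidative stress; compound pretreatment for 60 min then peroxide exposure for 2 h; potency is for protecting the cells against peroxide damage rather than for killing them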

For `CCc1cc(C(=O)N2CCc3c([nH]c4ccccc34)C2c2ccc(OC)cc2F)no1` (stereo not given), the EC50 [1] was 28.3 µM (active), the CC50 [2] was 24.4 µM (active) and the EC50 [3] was > 150 µM (not active). For the same compound, the EC50 [4] was > 150 µM (not active), the EC50 [5] was > 150 µM (inconclusive) and the IC50 [6] was 1.74 µM (active). The CC50 [7] was 20 µM (active).
For `COc1ccc(C)cc1NC(=O)NNC(=O)c1cc2ccccc2cc1O`, the EC50 [8] was 22.7 µM (inconclusive), the EC50 [9] was > 38 µM (not active) and the IC50 [10] was > 94.1 µM (inactive).
With `COc1cc(CNCc2ccccn2)ccc1OCc1ccc(Cl)c(Cl)c1` the CC50 [7] was > 25 µM (active) and the AC50 [11] was 45.5 µM (active).
With `CC(C)(C)c1cc(-c2nc(N)nc(N)n2)c(O)c(C(C)(C)C)c1` the CC50 [12] was 38.3 µM (active), the AC50 [13] was 3.65 µM (active) and the IC50 [14] was > 20 µM (inactive). For the same compound, the AC50 [15] was 28.9 µM (active).
In the case of `COc1ccc(N(C(=O)c2ccncc2)S(=O)(=O)c2ccccc2)cc1`, the AC50 [15] is reported as 1.77 µM (active).
For `O=C(NC(=S)NNC(=O)c1cccs1)c1ccccc1`, the EC50 [16] was 3.79 µM (active), the EC50 [17] was > 150 µM (not active) and the EC50 [18] was 21.2 µM (active). For the same compound, the IC50 [10] was > 94.1 µM (inactive).
For `Cn1c(N=NO)nc2ccccc21`, the EC50 [8] was > 150 µM (inactive), the EC50 [19] was 11.3 µM (active) and the EC50 [20] was 0.778 µM (active). The EC50 [21] was > 350 µM (not active), the EC50 [22] was < 6 µM (inconclusive) and the AC50 [23] was 0.932 µM (active).
With `COc1ccccc1OCc1cc(C(=O)N2CCN(C)C(c3ccccc3)C2)no1` (stereo not given) the AC50 [15] was 4.78 µM (active).
For `Cc1ccc(CS/C(Nc2ccccc2C)=C(\C#N)C(=O)NCc2ccco2)c(C)c1`, the CC50 [2] was 15.2 µM (active).
In the case of `Cc1[nH]c2ccc(C(=O)N3CCN(c4cccc(Cl)c4)CC3)cc2c1C`, the AC50 [15] is reported as 7.72 µM (active).
For `CCOc1ccc(/C=N/NC(=O)c2cc3c(OC)cccc3[nH]2)cc1`, the IC50 [24] was 3.08 µM (active), the IC50 [25] was 1.65 µM (active) and the IC50 [26] was 13.2 µM (active). For the same compound, the IC50 [27] was 1.85 µM (active).
In the case of `O=[N+]([O-])c1cc(Cl)cc(/C=N/NC(=S)Nc2ccc(S(=O)(=O)N3CCOCC3)cc2)c1O`, the EC50 [8] is reported as > 160 µM (inactive), the EC50 [9] is reported as > 38 µM (not active) and the IC50 [28] is reported as 3.47 µM (active). The IC50 [29] was 3.52 µM (active), the CC50 [30] was 38.3 µM (active) and the IC50 [31] was > 100 µM (active). The IC50 [10] was > 94.1 µM (inactive).
For `O=C(CSc1nnc(-c2ccccc2)n1Cc1ccccc1)NNC(=O)c1ccccc1O`, the IC50 [32] was 33.7 µM (inactive) and the IC50 [10] was > 94.1 µM (inactive).
In the case of `Cc1c(/C=N/NC(N)=O)c2ccccn2c1C(=O)c1ccncc1`, the EC50 [19] is reported as > 350 µM (not active) and the EC50 [21] is reported as > 350 µM (not active).

Reference: ChEMBL document CHEMBL1201862, “PubChem BioAssay data set” (2004)
